Experimental data from patent publication US4755594A, “N^6 -substituted adenosines” (Warner-Lambert Company, priority 1986, dated 1988).

What was measured:
[1] = Mouse Activity and Screen Test Procedure (MAST): inhibition of spontaneous locomotion; type: in vivo, Swiss-Webster male mice; conditions: IP, 1 h, read-out: Inhibition of motor activity
From the text: (§1) The compounds of the invention are new chemical substances which are useful as pharmaceutical agents for the treatment of psychoses. The antipsychotic activity of representative compounds of the invention was established by the Mouse Activity and Screen Test Procedure (MAST) described below. Animals Nine unfasted Swiss-Webster male mice weighing 20-30 g are equally divided into three groups for each drug dose to be tested. That is, data for each dose level was generated by three separate groups of three mice each. Drugs A minimum of three dose levels (10, 30, and 100 mg/kg) are tested for each drug. Treatments are administered intraperitoneally one hour prior to testing. All dosages are calculated as parent compound and given in volumes of 10 ml/kg. Compounds are dissolved or suspended in 0.2% Methocel. Control animals are injected with Methocel. Testing A two part testing procedure is started one hour postinjection. First, the screen test (ST) is performed (see Pharmac. Biochem. Behav. 6, 351-353, 1977). Briefly this test consists of placing mice on individual wire screens which are then rotated 180 degrees at the start of a 60 second observation period. The number of mice falling off the inverted screen is recorded. Immediately following the screen test, the final phase of testing is initiated by placing each group of three mice in one actophotometer (Life Sciences, 22, 1067-1076, 1978). The actophotometer consists of a cylindrical chamber whose center is occupied by another cylinder which contains the illumination for six photocells located on the perimeter of the chamber. Six light-beam interruptions equal one count. Locomotor activity is recorded by computer at ten minute intervals for 60 minutes. Data The data obtained from the screen test are expressed as percent of mice falling off the screen. Data derived from locomotor activity of drug treated mice are compared to the activity of vehicle treated animals and are expressed as percent inhibition of spontaneous locomotion. All percentages reported for inhibition of locomotion (LI) are based upon data accumulated for one hour. Both phases of testing are graded: A=60-100%; C=31-59%; and N=0-30%. An overall dose rating is obtained by the following criteria: […]

[2] = Antihypertensive evaluation (AHP3), aortic blood pressure in conscious rats; type: in vivo; conditions: conscious rat, 10 mg/kg
From the text: ANTIHYPERTENSIVE EVALUATION (AHP3)
This test procedure is described in the following paragraphs.
A Method for the Direct Monitoring of Aortic Blood
Pressure and Heart Rate from Conscious Rats
The continuous monitoring of pulsatile blood pressure (BP) from unrestrained conscious rats surgically equipped with polyethylene cannulas was accomplished by means of a computer assisted data capture scheme (CADCS). The basic elements of the methodology are the cannulation procedure and the CADCS.
Rats were anesthetized with Telazol (1:1 tiletamine HCl and zolazepam HCl); 20-40 mg/kg IM and the descending aorta exposed via a midline incision. Cannulas fabricated from polyethylene tubing were inserted into the aorta via an undersized puncture hole below the renal arteries. The puncture hole was made by a 23 G disposable needle with a section of the aorta clamped off above and below the puncture site. The cannulas, consisting of a PE100 (0.86 mm ID) body and a PE50 (0.58 mm ID) tip, were attached to a trocar, inserted through the psoas muscle, and passed subcutaneously along the midline of the back and externalized between the ears. The cannulas were anchored to the psoas muscle and between the scalulae (3-0 green braided suture). The midline incision was closed in two steps (muscle first, skin second) using continuous over-and-over sutures (4-0 chronic). Each rat was then given penicillin 30,000 units subcutaneously (Penicillin G Procaine Sterile Suspension).
The rats were fitted with a harness-spring-swivel assembly designed to protect the cannula and to provide the rat relative freedom of movement. The harnesses were fabricated from nylon hook and loop tape cemented to a metal plate to which spring wires (18-8 stainless steel) were attached to brass swivels. Each polyethylene cannula was channeled through a spring and connected through a swivel to a pressure transducer (Model P23Gb; Statham Instruments; Hato Rey, Puerto Rico) and an infusion pump (Sage model 234-7; Orion Research, Cambridge MA) by means of PE100 tubing. While on test, each rat received a continuous slow infusion of heparinized saline solution (approximately 400 μl or 40 units of heparin per 24 hours period) to prevent clot formation. Additional "flushes" of the cannula with heparinized saline were carried out when the aortic pulse pressure (systolic minus diastolic) was less than 25 mm Hg.
The pulsatile blood pressure and heart rate of each of 32 rats was monitored every minute by means of two in-laboratory microcomputers communicating directly with a data concentrator computer. The data were first stored on the data concentrator disk and then transferred to a magnetic tape for analysis and report generation by the main research computer. The overall scheme involved modulating the primary signal from the pressure transducer, generating the primary data set of the one-minute values for systolic, diastolic, and mean blood pressures and heart rate by the in-lab microcomputer and the storage, analysis, and report generation by the main research computer.
The transducers were connected to analog signal conditioning modules. The modules provided a regulated excitation voltage for the transducers, amplification as required to interface the microprocessors and an active low pass filter to compensate for the pressure wave form distortion produced by the flexible, fluid filled, narrow cannula. The distortion was 22-26 Hz and this provided a reliable estimate of both systolic and diastolic blood pressure.
The microcomputers (one for each of two groups of 16 rats) were connected to the input components through the module interface units, an analog-to-digital converter for the pressure wave form signal and the digital inputs for the dose and event marker switches. The microcomputer controlled the sequential acquisition of data from the modular interface units through an internal synchronous time-of-day clock/time base generator. […]

[3] = Mouse Activity and Screen Test Procedure (MAST): screen test; type: in vivo, Swiss-Webster male mice; conditions: IP
From the text: as §1, with “recorded.” for “recorded. Immediately following the screen test, the final phase of testing is initiated by placing each group of three mice in one actophotometer (Life Sciences, 22, 1067-1076, 1978). The actophotometer consists of a cylindrical chamber whose center is occupied by another cylinder which contains the illumination for six photocells located on the perimeter of the chamber. Six light-beam interruptions equal one count. Locomotor activity is recorded by computer at ten minute intervals for 60 minutes.”

OC[C@H]1O[C@@H](n2cnc3c(NCC4(c5ccc(Cl)cc5)CC4)ncnc32)[C@H](O)[C@@H]1O [Example 12, N6-((1-(4-Chlorophenyl)cyclopropyl)methyl)adenosine]
inhibition in vivo at 3 mg/kg ([1]; 3 mg/kg): -4% | inhibition in vivo at 10 mg/kg ([1]; 10 mg/kg): 5% | inhibition in vivo at 30 mg/kg ([1]; 30 mg/kg): 20% | Maximum BP ↓ MAP [2]: 23% | Inhibition of screen test failure ([3]; 3 mg/kg): 0% | Inhibition of screen test failure ([3]; 10 mg/kg): 0% | Inhibition of screen test failure ([3]; 30 mg/kg): 0%
